Experimental data: ChEMBL document CHEMBL5120772, “Discovery of ASP5878: Synthesis and structure-activity relationships of pyrimidine derivatives as pan-FGFRs inhibitors with improved metabolic stability and suppressed hERG channel inhibitory activity” (Bioorg Med Chem, 2022)

Experiments:
NIH3T3 = assay: Cytotoxicity against mouse NIH/3T3 cells overexpressing FGFR3 S249C assessed as cell growth inhibition incubated for 5 days by CellTitre-Glo assay; details: NIH3T3, 120 h
[1] = Intrinsic clearance in human liver microsomes
[2] = biological target: Voltage-gated inwardly rectifying potassium channel KCNH2 (Homo sapiens, UniProt Q12809); assay: Inhibition of hERG channel expressed in CHO cells at -80 mV holding potential by Qpatch clamp method
Sequence of Voltage-gated inwardly rectifying potassium channel KCNH2 (Q12809 whole entry): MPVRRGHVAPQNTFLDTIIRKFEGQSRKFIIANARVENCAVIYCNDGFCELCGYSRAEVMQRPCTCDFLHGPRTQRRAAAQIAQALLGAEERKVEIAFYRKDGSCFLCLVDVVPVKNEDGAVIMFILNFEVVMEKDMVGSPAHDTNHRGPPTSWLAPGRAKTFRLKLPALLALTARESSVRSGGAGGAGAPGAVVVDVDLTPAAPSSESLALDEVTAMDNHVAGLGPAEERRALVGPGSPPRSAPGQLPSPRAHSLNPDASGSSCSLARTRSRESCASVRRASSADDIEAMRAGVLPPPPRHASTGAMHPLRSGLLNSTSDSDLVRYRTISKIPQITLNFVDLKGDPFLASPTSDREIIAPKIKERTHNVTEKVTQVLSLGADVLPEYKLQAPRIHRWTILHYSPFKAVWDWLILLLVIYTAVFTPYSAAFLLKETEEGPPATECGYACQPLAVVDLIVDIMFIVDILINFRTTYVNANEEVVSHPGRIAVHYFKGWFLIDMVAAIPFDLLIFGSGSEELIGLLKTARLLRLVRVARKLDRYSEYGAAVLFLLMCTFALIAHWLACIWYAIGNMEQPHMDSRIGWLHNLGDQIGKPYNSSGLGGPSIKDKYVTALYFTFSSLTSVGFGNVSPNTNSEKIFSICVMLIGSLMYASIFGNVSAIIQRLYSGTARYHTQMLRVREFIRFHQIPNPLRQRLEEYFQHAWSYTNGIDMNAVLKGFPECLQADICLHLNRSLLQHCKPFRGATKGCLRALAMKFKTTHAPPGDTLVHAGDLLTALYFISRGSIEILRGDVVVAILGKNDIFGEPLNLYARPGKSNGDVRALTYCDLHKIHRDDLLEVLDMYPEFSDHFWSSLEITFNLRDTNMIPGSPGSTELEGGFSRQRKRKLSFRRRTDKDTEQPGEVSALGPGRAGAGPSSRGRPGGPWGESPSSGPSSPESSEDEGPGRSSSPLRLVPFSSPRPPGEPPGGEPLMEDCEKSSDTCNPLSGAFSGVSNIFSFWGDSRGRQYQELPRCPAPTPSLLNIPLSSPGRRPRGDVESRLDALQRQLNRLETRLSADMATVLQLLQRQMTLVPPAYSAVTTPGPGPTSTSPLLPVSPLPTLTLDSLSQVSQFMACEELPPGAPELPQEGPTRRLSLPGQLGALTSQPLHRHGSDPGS

[3] = Lipophilicity, logD of the compound in 1-octanol and phosphate buffer at pH 7.4 by LC-MS analysis
[4] = Permeability of the compound in aqueous buffer at pH 6.5 incubated for 2 hrs by PAMPA based HPLC analysis
[5] = Plasma concentration in ICR mouse at 30 mg/kg, po measured after 6 hrs of administration by LC-MS/MS analysis; assay type: ADME, organism-based
[6] = Volume of distribution at steady state in Sprague-Dawley rat at 0.3 mg/kg, iv measured up to 24 hrs by LC-MS/MS analysis; details: in vivo
[7] = Volume of distribution at steady state in Beagle dog at 0.1 mg/kg, iv measured up to 72 hrs by LC-MS/MS analysis; details: in vivo
[8] = Half-life in Sprague-Dawley rat at 0.3 mg/kg, iv measured up to 24 hrs by LC-MS/MS analysis; details: in vivo
[9] = Half-life in Beagle dog at 0.1 mg/kg, iv measured up to 72 hrs by LC-MS/MS analysis; details: in vivo
[10] = AUCinfinity in Sprague-Dawley rat at 0.3 mg/kg, iv measured up to 24 hrs by LC-MS/MS analysis; details: in vivo
[11] = AUCinfinity in Beagle dog at 0.1 mg/kg, iv measured up to 72 hrs by LC-MS/MS analysis; details: in vivo
[12] = AUCinfinity in Sprague-Dawley rat at 0.3 mg/kg, po measured upto 24 hrs by LC-MS/MS analysis; details: in vivo
[13] = AUCinfinity in Beagle dog at 0.1 mg/kg, po measured upto 72 hrs by LC-MS/MS analysis; details: in vivo
hERG [14] = biological target: T1, hERG (Homo sapiens, UniProt Q12809); assay: Inhibition of hERG in HEK293 cells assessed as mean compensated suppression rate at 3 uM incubated for 13 mins by whole cell patch clamp assay relative to control; details: HEK293 cells expressing hERG
T1 sequence (Q12809 whole entry): as above

hERG [15] = biological target: T1, hERG; assay: Inhibition of hERG in HEK293 cells assessed as mean compensated suppression rate at 1 uM incubated for 13 mins by whole cell patch clamp assay relative to control; details: HEK293 cells expressing hERG
hERG [16] = biological target: T1, hERG; assay: Inhibition of hERG in HEK293 cells assessed as mean compensated suppression rate at 10 uM incubated for 13 mins by whole cell patch clamp assay relative to control; details: HEK293 cells expressing hERG
[17] = dog, in vivo, po, 10 mg/kg, 72 h
[18] = dog, in vivo, po, 100 mg/kg, 72 h
[19] = dog, in vivo, po, 10 mg/kg, 72 h; remark: listed apart in the source
in vivo [20] = details: beagle, dog, po, 1 mg/kg
in vivo [21] = details: beagle, dog, po, 1 mg/kg; remark: listed apart in the source
in vivo [22] = details: beagle, dog, po, 1 mg/kg; remark: listed apart in the source
in vivo [23] = details: beagle, dog, po, 10 mg/kg
in vivo [24] = details: beagle, dog, po, 100 mg/kg
in vivo [25] = details: beagle, dog, po, 100 mg/kg; remark: listed apart in the source
in vivo [26] = details: Sprague-Dawley, rat, iv, 0.3 mg/kg
in vivo [27] = details: beagle, dog, iv, 0.1 mg/kg
in vivo [28] = details: Sprague-Dawley, rat, po, 0.3 mg/kg
in vivo [29] = details: beagle, dog, po, 0.1 mg/kg
in vivo [30] = details: Sprague-Dawley, rat, po, 0.3 mg/kg; remark: listed apart in the source
in vivo [31] = details: beagle, dog, po, 0.1 mg/kg; remark: listed apart in the source
in vivo [32] = details: Sprague-Dawley, rat, po, 0.3 mg/kg; remark: listed apart in the source
in vivo [33] = details: beagle, dog, po, 0.1 mg/kg; remark: listed apart in the source
[34] = Ratio of drug concentration in brain to plasma (Kp,brain) in Sprague-Dawley rat at 1 mg/kg, po measured after 1 hr
[35] = Ratio of drug concentration in brain to plasma (Kp,brain) in Sprague-Dawley rat at 1 mg/kg, po measured after 4 hrs
[36] = Ratio of drug concentration in brain to plasma (Kp,brain) in Sprague-Dawley rat at 1 mg/kg, po measured after 24 hrs
[37] = biological target: Fibroblast growth factor receptor 3 (Homo sapiens, UniProt P22607); assay: Inhibition of wild type N-terminal GST tagged FGFR3 (436 to 806 residues) (unknown origin) expressed in sf21 insect cells preincubated for 30 mins followed by substrate addition and measured after 30 mins in presence of ATP by off-chip mobility shift assay
Sequence of Fibroblast growth factor receptor 3 (P22607 whole entry, the tested form may be a part): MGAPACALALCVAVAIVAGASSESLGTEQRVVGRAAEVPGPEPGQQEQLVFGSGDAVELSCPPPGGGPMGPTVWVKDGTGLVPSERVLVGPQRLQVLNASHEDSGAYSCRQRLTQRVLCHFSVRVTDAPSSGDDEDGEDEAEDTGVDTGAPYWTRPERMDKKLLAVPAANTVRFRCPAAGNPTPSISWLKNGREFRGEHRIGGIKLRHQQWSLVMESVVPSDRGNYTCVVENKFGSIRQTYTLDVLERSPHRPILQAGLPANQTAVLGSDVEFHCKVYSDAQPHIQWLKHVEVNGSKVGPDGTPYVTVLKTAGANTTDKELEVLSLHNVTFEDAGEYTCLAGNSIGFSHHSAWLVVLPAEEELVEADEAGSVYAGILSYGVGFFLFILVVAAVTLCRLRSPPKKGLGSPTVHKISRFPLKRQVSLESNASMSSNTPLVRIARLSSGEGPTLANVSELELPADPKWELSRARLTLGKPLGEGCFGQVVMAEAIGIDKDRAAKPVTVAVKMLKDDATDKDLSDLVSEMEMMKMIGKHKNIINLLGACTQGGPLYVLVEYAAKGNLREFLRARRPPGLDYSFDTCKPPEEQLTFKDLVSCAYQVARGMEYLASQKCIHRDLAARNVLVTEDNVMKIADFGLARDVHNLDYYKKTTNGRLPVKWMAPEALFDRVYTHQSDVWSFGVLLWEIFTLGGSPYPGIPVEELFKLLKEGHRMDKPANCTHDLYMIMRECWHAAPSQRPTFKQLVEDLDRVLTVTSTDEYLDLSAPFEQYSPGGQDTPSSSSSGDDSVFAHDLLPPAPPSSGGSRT

animal or person = details: Mus musculus, Balb/c, NIH3T3, po, 6 h, read-out: INH

COc1cc(OC)c(F)c(COc2cnc(Nc3cnn(CCN4CCNCC4)c3)nc2)c1F.Cl.Cl.Cl
IC50 (NIH3T3): 13 nM | CLint scaled ([1]; liver microsomes): < 23 mL/min/kg | IC50 [2]: 89000 nM | logD ([3]; 1-octanol/phosphate buffer): 0.2 | Papp at 2 h [4]: < 1.1 ×10⁻⁶ cm/s | concentration at 6 h [5]: 305 nM

CCOc1cc(Nc2ncc(OCc3c(F)c(OC)cc(OC)c3F)cn2)ccc1N1CCC(N2CCN(C)CC2)CC1
CLint scaled ([1]; liver microsomes): < 23 mL/min/kg | IC50 [2]: > 3000 nM | logD ([3]; 1-octanol/phosphate buffer): 3.8 | Papp at 2 h [4]: 16.8 ×10⁻⁶ cm/s

COc1cc(Nc2ncc(CCc3c(F)c(OC)cc(OC)c3F)cn2)ccc1N1CCN(C)CC1
IC50 (NIH3T3): 18 nM | CLint scaled ([1]; liver microsomes): 101 mL/min/kg | logD ([3]; 1-octanol/phosphate buffer): 3 | Papp at 2 h [4]: > 30 ×10⁻⁶ cm/s

COc1cc(OC)c(F)c(COc2cnc(Nc3ccc(N4CCC(N5CCN(C)CC5)CC4)c(C)c3)nc2)c1F
IC50 (NIH3T3): 20 nM | CLint scaled ([1]; liver microsomes): 58 mL/min/kg | logD ([3]; 1-octanol/phosphate buffer): 4.1 | Papp at 2 h [4]: 20.6 ×10⁻⁶ cm/s

COc1cc(OC)c(F)c(COc2cnc(Nc3cnn(CCNC4CCN(C)CC4)c3)nc2)c1F.Cl.Cl.Cl
IC50 (NIH3T3): 32 nM | CLint scaled ([1]; liver microsomes): < 23 mL/min/kg | IC50 [2]: 83000 nM | logD ([3]; 1-octanol/phosphate buffer): 0.7 | Papp at 2 h [4]: < 1.4 ×10⁻⁶ cm/s | concentration at 6 h [5]: 50.2 nM

COc1cc(OC)c(F)c(COc2cnc(Nc3ccc(N4CCC(N5CCN(C)CC5)CC4)nc3)nc2)c1F
CLint scaled ([1]; liver microsomes): 34 mL/min/kg

COc1cc(Nc2ncc(CCc3c(F)c(OC)cc(OC)c3F)cn2)ccc1N1CCC(N(C)C2CCN(C)CC2)CC1.Cl.Cl.Cl.Cl
IC50 (NIH3T3): 24 nM | CLint scaled ([1]; liver microsomes): 48 mL/min/kg | IC50 [2]: > 1000 nM | logD ([3]; 1-octanol/phosphate buffer): 2.5 | Papp at 2 h [4]: < 0.9 ×10⁻⁶ cm/s

COc1cc(Nc2ncc(CCc3c(F)c(OC)cc(OC)c3F)cn2)ccc1N1CCN(C2CCN(C)CC2)CC1
CLint scaled ([1]; liver microsomes): 51 mL/min/kg

COc1cc(OC)c(F)c(COc2cnc(Nc3cnn(CCO)c3)nc2)c1F [ASP-5878]
IC50 (NIH3T3): 11 nM | CLint scaled ([1]; microsomes): < 23 mL/min/kg | IC50 [2]: > 10000 nM | logD ([3]; octanol/water): 2.3 | Papp at 2 h [4]: 13.3 ×10⁻⁶ cm/s | concentration at 6 h [5]: 1570 nM | Vd at 24 h [6]: 0.671 L/kg | Vd at 72 h [7]: 0.665 L/kg | half-life at 24 h [8]: 1.7 h | half-life at 72 h [9]: 9.6 h | AUC(0-inf) at 24 h [10]: 864 ng·h/mL | AUC(0-inf) at 72 h [11]: 1260 ng·h/mL | AUC(0-inf) at 24 h [12]: 657 ng·h/mL | AUC(0-inf) at 72 h [13]: 1180 ng·h/mL | inhibition at 13 min, 3 µM (hERG [14]): 9.1% | inhibition at 13 min, 1 µM (hERG [15]): 7% | inhibition at 13 min, 10 µM (hERG [16]): 9.1% | Cmax [17]: 3540 ng/mL | Cmax [18]: 9020 ng/mL | AUC [19]: 39600 ng·h/mL | AUC(0-t) at 72 h (in vivo [20]): 5710 ng·h/mL | Tmax at 72 h (in vivo [21]): 1.3 h | Cmax at 72 h (in vivo [22]): 769 ng/mL | Tmax at 72 h (in vivo [23]): 3 h | Tmax at 72 h (in vivo [24]): 4.5 h | AUC(0-t) at 72 h (in vivo [25]): 111000 ng·h/mL | clearance at 24 h (in vivo [26]): 5.82 mL/min/kg | clearance at 72 h (in vivo [27]): 1.33 mL/min/kg | Cmax at 24 h (in vivo [28]): 196 ng/mL | Cmax at 72 h (in vivo [29]): 119 ng/mL | Tmax at 24 h (in vivo [30]): 1 h | Tmax at 72 h (in vivo [31]): 1 h | bioavailability at 24 h (in vivo [32]): 76.1% | bioavailability at 72 h (in vivo [33]): 94.2%

COc1cc(OC)c(F)c(COc2cnc(Nc3cnn(CCO)c3)n[14cH]2)c1F
Kp at 1 h [34]: 0.15 | Kp at 4 h [35]: 0.2 | Kp at 24 h [36]: 0.69

COc1cc(OC)c(F)c(COc2cnc(Nc3ccc(N4CCC(N5CCN(C)CC5)CC4)c(F)c3)nc2)c1F
IC50 (NIH3T3): 5.5 nM | CLint scaled ([1]; liver microsomes): 42 mL/min/kg | IC50 [37]: < 1 nM

COc1cc(Nc2ncc(OCc3c(F)c(OC)cc(OC)c3F)cn2)ccc1N1CCC(N2CCN(C)CC2)CC1
IC50 (NIH3T3): 13 nM | CLint scaled ([1]; liver microsomes): 40 mL/min/kg | IC50 [2]: > 3000 nM | logD ([3]; 1-octanol/phosphate buffer): 3.3 | Papp at 2 h [4]: 11.2 ×10⁻⁶ cm/s | concentration at 6 h [5]: 2790 nM | inhibition in vivo at 30 mg/kg (animal or person): 67%

COc1cc(Nc2ncc(OCc3c(F)c(OC)cc(OC)c3F)cn2)ccc1N1CCN(C)CC1
CLint scaled ([1]; liver microsomes): 39 mL/min/kg | IC50 [2]: > 3000 nM | logD ([3]; 1-octanol/phosphate buffer): 3 | Papp at 2 h [4]: 16.2 ×10⁻⁶ cm/s

COc1cc(Nc2ncc(OCc3c(F)c(OC)cc(OC)c3F)cn2)cnc1N1CCC(N2CCN(C)CC2)CC1
CLint scaled ([1]; liver microsomes): 26 mL/min/kg

COc1cc(Nc2ncc(CCc3c(F)c(OC)cc(OC)c3F)cn2)ccc1N1CCC(N2CCN(C)CC2)CC1
CLint scaled ([1]; liver microsomes): 171 mL/min/kg | IC50 [2]: 10000 nM

COc1cc(OC)c(F)c(COc2cnc(Nc3cnc(N4CCC(N5CCN(C)CC5)CC4)nc3)nc2)c1F
CLint scaled ([1]; liver microsomes): 39 mL/min/kg
